# Measurements from patent EP0652009A1, “Identification and use of protease inhibitors” (ELI LILLY AND COMPANY, priority 1993, dated 1995).
# Non-standard residues stand in square brackets, D forms with d. Residues, ends and D or L forms follow the SMILES beside them. 2Nal = N[C@@H](Cc1ccc2ccccc2c1)C(=O)O; Sta = CC(C)C[C@H](N)[C@@H](O)CC(=O)O
# Biological target: Cathepsin D (Homo sapiens, UniProt P07339)
# Assay: Assay 3: cathepsin D inhibition activity (non-cellular assay, chromogenic substrate)
# Assay type: biochemical
# Design: Frozen human placental tissue was thawed and homogenized in 10mM Tris-HCl, pH 7.4; from tissue; host or cells: human placenta
# Details: cathepsin D from human placental tissue, pH 3.7, 37°C
# Method: A third non-cellular assay for determining in vitro aspartyl protease inhibitory activity is generally described in Jupp, R.A. et al., (1990) Biochem. J., 265:871-878 and Rao et al., J. Med. Chem. (1993), in press. The assay is carried out by incubating a test compound with a suitable aspartyl protease, such as cathepsin D, in the presence of a chromogenic substrate. The inhibition constant, Ki, value may then be determined by quantifying the competitive inhibition of the hydrolysis of the chromogenic substrate. A variety of chromogenic substrates that are useful for assaying aspartyl protease activity are discussed in Dunn, et al., (1986) Biochem. J., 237:899-906. A preferred chromogenic substrate for a cathepsin D assay is disclosed in Scarborough, P.E. et al., Protein Science, (1993), 2:264-276.
# Concentrations of substrate solutions and cleavage products may be verified using amino acid analysis. The enzyme preparations may be titrated with a tightly binding inhibitor to quantitate the active concentration of the enzyme. Enzyme concentrations are typically in the range of from 1-6 nM. […]
# A decrease in absorbance in the range of 284-324 nm may be monitored using a spectrophotometer. Absorbance readings are typically taken at various timepoints. […] Estimates of Ki may then be determined using the Dixon construction. […]
# Cathepsin D, sequence (P07339 65-412): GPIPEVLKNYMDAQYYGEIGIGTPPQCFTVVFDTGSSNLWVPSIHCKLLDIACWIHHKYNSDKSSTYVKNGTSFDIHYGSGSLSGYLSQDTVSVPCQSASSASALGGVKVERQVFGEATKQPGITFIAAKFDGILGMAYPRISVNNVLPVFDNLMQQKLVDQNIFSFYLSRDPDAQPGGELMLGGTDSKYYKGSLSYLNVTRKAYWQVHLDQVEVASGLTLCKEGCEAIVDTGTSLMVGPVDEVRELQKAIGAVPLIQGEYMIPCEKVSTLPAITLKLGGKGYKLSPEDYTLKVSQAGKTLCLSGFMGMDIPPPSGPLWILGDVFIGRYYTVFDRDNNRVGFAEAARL
compound,measurement,value
"CC(=O)N[C@@H](Cc1ccc2ccccc2c1)C(=O)N[C@H](C(=O)N[C@@H](CC(C)C)[C@@H](O)CC(=O)N[C@@H](CC(C)C)C(=O)N[C@@H](Cc1ccc2ccccc2c1)C(N)=O)C(C)C [Example 36, Acetyl-β-naphthylalanine-valine-statine-leucine-β-naphthylalanine-amide] (Ac-[2Nal]V[Sta]L[2Nal]-NH2)",Ki,0.39 ± 0.04 nM
